Paper PMC6138693, “Structural determinants of Rab11 activation by the guanine nucleotide exchange factor SH3BP5” (Nature Communications, 2018)

How the values were obtained:
Rab11A [1] = target: T1, Rab11A (Homo sapiens, UniProt P62491, F36A, form not given); experiment: Mant-GDP loading, then fluorescence release on GEF-driven exchange; assay type: binding; conditions: labelled compound; nucleotide site; Mg2+, 100 uM GTPgammaS, with and without SH3BP5
T1 construct: Rab11A with C-terminal His-tag kept, N-terminal GST cut by TEV; E. coli BL21 C41 (residues 1-211 given for the His-tagged HDX construct)
T1 sequence (P62491 1-211 F36A, form open): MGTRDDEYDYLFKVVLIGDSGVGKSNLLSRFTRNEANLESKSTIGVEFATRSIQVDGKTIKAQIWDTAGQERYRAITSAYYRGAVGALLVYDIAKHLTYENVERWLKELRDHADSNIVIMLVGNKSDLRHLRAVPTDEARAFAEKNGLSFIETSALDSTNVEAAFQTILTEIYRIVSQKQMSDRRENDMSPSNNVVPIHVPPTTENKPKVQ

Rab11A [2] = target: T2, Rab11A (Homo sapiens, UniProt P62491, Q70L, form not given); experiment: as above; assay type: binding; conditions: labelled compound; nucleotide site; Mg2+, 100 uM GTPgammaS, SH3BP5 as exchange factor
T2 construct: Rab11A with C-terminal His-tag kept, N-terminal GST cut by TEV; E. coli BL21 C41 (residues 1-211 given for the His-tagged HDX construct)

Rab4B = target: T3, Rab4B (Homo sapiens, UniProt P61018); experiment: Mant-GDP loading, fluorescence release assay; assay type: binding; conditions: labelled compound; nucleotide site; Mg2+, 100 uM GTPgammaS, SH3BP5 as exchange factor
T3 construct: recombinant in E. coli, N-terminal GST cut by TEV
T3 sequence (P61018 whole entry): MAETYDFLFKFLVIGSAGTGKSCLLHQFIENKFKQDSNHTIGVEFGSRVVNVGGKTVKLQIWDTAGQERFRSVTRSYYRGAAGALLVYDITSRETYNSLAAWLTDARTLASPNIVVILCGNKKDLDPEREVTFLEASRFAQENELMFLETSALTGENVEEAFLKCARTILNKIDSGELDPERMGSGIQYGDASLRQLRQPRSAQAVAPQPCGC

Rab11A [3] = target: T4, Rab11A (Homo sapiens, UniProt P62491); experiment: Mant-GDP loading, then fluorescence release on GEF-driven exchange; assay type: binding; conditions: labelled compound; nucleotide site; Mg2+, 100 uM GTPgammaS, SH3BP5 as exchange factor
T4 construct: Rab11A with C-terminal His-tag kept, N-terminal GST cut by TEV; E. coli BL21 C41 (residues 1-211 given for the His-tagged HDX construct)

Rab11A [4] = target: T5, Rab11A (Homo sapiens, UniProt P62491, R82C, form not given); experiment: as above; assay type: binding; conditions: labelled compound; nucleotide site; Mg2+, 100 uM GTPgammaS, with and without SH3BP5
T5 construct: Rab11A with C-terminal His-tag kept, N-terminal GST cut by TEV; E. coli BL21 C41 (residues 1-211 given for the His-tagged HDX construct)
T5 sequence (P62491 1-211 R82C, form open): as the sequence (P62491 1-211 F36A, form open) above, with A36F, R82C counted along it

Rab14 = target: T6, Rab14 (Homo sapiens, UniProt P61106); experiment: Mant-GDP loading, fluorescence release assay; assay type: binding; conditions: labelled compound; nucleotide site; Mg2+, 100 uM GTPgammaS, SH3BP5 as exchange factor
T6 construct: recombinant in E. coli, N-terminal GST cut by TEV
T6 sequence (P61106 whole entry): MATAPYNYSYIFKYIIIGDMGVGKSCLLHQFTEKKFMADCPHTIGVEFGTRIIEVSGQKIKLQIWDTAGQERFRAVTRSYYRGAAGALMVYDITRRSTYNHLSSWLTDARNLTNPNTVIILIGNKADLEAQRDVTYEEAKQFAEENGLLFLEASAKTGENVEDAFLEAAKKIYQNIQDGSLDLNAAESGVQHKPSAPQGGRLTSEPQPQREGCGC

Rab11A [5] = target: T7, Rab11A (Homo sapiens, UniProt P62491, I44A, form not given); experiment: Mant-GDP loading, then fluorescence release on GEF-driven exchange; assay type: binding; conditions: labelled compound; nucleotide site; Mg2+, 100 uM GTPgammaS, with and without SH3BP5
T7 construct: Rab11A with C-terminal His-tag kept, N-terminal GST cut by TEV; E. coli BL21 C41 (residues 1-211 given for the His-tagged HDX construct)
T7 sequence (P62491 1-211 I44A, form open): as the sequence (P62491 1-211 F36A, form open) above, with A36F, I44A counted along it

Rab11A [6] = target: T8, Rab11A (Homo sapiens, UniProt P62491, L38P, form not given); experiment: as above; assay type: binding; conditions: labelled compound; nucleotide site; Mg2+, 100 uM GTPgammaS, with and without SH3BP5
T8 construct: Rab11A with C-terminal His-tag kept, N-terminal GST cut by TEV; E. coli BL21 C41 (residues 1-211 given for the His-tagged HDX construct)
T8 sequence (P62491 1-211 L38P, form open): as the sequence (P62491 1-211 F36A, form open) above, with A36F, L38P counted along it

Rab11A [7] = target: T9, Rab11A (Homo sapiens, UniProt P62491, S40F, form not given); experiment: as above; assay type: binding; conditions: labelled compound; nucleotide site; Mg2+, 100 uM GTPgammaS, with and without SH3BP5
T9 construct: Rab11A with C-terminal His-tag kept, N-terminal GST cut by TEV; E. coli BL21 C41 (residues 1-211 given for the His-tagged HDX construct)
T9 sequence (P62491 1-211 S40F, form open): as the sequence (P62491 1-211 F36A, form open) above, with A36F, S40F counted along it

Rab11A [8] = target: T10, Rab11A (Homo sapiens, UniProt P62491, K24R, form not given); experiment: as above; assay type: binding; conditions: labelled compound; nucleotide site; Mg2+, 100 uM GTPgammaS, with and without SH3BP5
T10 construct: Rab11A with C-terminal His-tag kept, N-terminal GST cut by TEV; E. coli BL21 C41 (residues 1-211 given for the His-tagged HDX construct)
T10 sequence (P62491 1-211 K24R, form open): as the sequence (P62491 1-211 F36A, form open) above, with K24R, A36F counted along it

Rab8 = target: T11, Rab8 (Homo sapiens, UniProt P61006); experiment: Mant-GDP loading, fluorescence release assay; assay type: binding; conditions: labelled compound; nucleotide site; Mg2+, 100 uM GTPgammaS, SH3BP5 as exchange factor
T11 construct: gene RAB8A; recombinant in E. coli, N-terminal GST cut by TEV
T11 sequence (P61006 whole entry): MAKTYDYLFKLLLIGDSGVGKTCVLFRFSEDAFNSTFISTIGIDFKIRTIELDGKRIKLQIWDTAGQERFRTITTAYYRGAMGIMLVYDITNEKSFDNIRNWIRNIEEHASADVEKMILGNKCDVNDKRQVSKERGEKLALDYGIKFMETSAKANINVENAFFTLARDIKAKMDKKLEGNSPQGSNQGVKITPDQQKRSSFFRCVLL

Rab25 = target: T12, Rab25 (Homo sapiens, UniProt P57735); experiment: Mant-GDP loading, then fluorescence release on GEF-driven exchange; assay type: binding; conditions: labelled compound; nucleotide site; Mg2+, 100 uM GTPgammaS, SH3BP5 as exchange factor
T12 construct: C-terminal His-tag, N-terminal GST cut by TEV; E. coli Rosetta
T12 sequence (P57735 whole entry): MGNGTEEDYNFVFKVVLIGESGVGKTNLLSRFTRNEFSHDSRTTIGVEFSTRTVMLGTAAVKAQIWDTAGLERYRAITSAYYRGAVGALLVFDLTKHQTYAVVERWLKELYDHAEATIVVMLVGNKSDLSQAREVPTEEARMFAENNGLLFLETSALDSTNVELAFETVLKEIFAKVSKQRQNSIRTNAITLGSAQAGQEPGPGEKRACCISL

Rab2A = target: T13, Rab2A (Homo sapiens, UniProt P61019); experiment: Mant-GDP loading, fluorescence release assay; assay type: binding; conditions: labelled compound; nucleotide site; Mg2+, 100 uM GTPgammaS, SH3BP5 as exchange factor
T13 construct: recombinant in E. coli, N-terminal GST cut by TEV
T13 sequence (P61019 whole entry): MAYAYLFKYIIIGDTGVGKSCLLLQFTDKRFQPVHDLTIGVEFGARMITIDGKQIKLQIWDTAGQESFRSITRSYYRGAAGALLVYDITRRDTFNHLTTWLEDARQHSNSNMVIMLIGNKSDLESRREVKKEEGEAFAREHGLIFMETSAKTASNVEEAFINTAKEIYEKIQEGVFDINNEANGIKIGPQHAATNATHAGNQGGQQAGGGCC

Rab11A [9] = target: T14, Rab11A (Homo sapiens, UniProt P62491, S25N, form not given); experiment: Mant-GDP loading, then fluorescence release on GEF-driven exchange; assay type: binding; conditions: labelled compound; without SH3BP5
T14 construct: Rab11A with C-terminal His-tag kept, N-terminal GST cut by TEV; E. coli BL21 C41 (residues 1-211 given for the His-tagged HDX construct)
T14 sequence (P62491 1-211 S25N, form open): as the sequence (P62491 1-211 F36A, form open) above, with S25N, A36F counted along it

Rab12 = target: T15, Rab12 (Homo sapiens, UniProt Q6IQ22); experiment: Mant-GDP loading, fluorescence release assay; assay type: binding; conditions: labelled compound; nucleotide site; Mg2+, 100 uM GTPgammaS, SH3BP5 as exchange factor
T15 construct: recombinant in E. coli, N-terminal GST cut by TEV
T15 sequence (Q6IQ22 whole entry): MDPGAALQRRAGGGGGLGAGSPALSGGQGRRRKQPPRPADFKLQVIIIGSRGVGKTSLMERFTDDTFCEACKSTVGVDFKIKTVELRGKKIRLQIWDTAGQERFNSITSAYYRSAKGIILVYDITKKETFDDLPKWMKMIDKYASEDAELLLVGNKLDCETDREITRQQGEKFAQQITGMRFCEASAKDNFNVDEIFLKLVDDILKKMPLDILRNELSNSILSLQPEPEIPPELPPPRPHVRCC

[10] = target: T16, SH3BP5 (1–265), crystal construct (N-terminal GEF domain of SH3BP5) (UniProt O60239 1-265); experiment: SEC; SH3BP5 truncation and Rab11(Q70L) mixed at an equimolar amount, 5 min at 4 °C, 20 mM EDTA (pH 7.5) for 1 h at 4 °C, loaded onto Superdex 200 10/300; conditions: both partners purified
T16 construct: A SeMet form made in E. coli B834 was used for phasing; source: E. coli BL21 C41, purified (GSTrap, TEV cleavage, HiTrap Q, SEC); not shown: GST, N-terminal, cleaved
T16 sequence (looked up): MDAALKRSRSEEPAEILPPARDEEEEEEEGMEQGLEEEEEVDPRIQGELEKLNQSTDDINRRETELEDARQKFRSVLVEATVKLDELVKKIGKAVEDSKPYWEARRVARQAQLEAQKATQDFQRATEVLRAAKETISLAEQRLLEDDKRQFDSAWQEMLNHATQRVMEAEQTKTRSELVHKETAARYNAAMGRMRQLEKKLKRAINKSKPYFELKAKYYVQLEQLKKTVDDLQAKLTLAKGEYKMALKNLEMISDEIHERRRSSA

[11] = target: T17, SH3BP5 (31–455), N-terminally truncated (UniProt O60239 31-455); experiment: HDX-MS; 1.0 µM Rab11(Q70L) and 1.0 µM SH3BP5 (31–455), incubated on ice with 20 µM EDTA for 1 h; D2O buffer 10 mM HEPES pH 7.5, 500 mM NaCl; 3 s at 1 °C and 3, 30, 300 s at room temperature; conditions: both partners purified
T17 construct: also called N-terminally truncated SH3BP5 (31–455); N-terminally truncated variant of SH3BP5; source: E. coli BL21 C41, purified (GSTrap, TEV cleavage, HiTrap Q, SEC); not shown: GST, N-terminal, cleaved
T17 sequence (looked up): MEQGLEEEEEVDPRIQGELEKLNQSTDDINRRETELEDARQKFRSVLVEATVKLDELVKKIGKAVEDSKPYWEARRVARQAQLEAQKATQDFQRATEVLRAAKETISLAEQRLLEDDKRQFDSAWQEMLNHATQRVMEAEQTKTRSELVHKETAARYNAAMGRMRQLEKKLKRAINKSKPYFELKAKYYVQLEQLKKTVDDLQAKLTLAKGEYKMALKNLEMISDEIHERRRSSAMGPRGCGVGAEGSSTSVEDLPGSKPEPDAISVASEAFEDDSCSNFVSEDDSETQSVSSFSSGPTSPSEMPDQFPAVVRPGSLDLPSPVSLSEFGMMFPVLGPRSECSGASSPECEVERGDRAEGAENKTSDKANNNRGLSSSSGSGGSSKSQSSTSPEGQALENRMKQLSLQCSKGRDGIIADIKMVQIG

[12] = target: T17, SH3BP5 (31–455), N-terminally truncated; experiment: HDX-MS; 0.4 µM C-terminally His-tagged Rab11A (1–211) and 0.4 µM SH3BP5 (31–455), with or without 0.2 mg/mL nickelated lipid vesicles; D2O buffer 10 mM HEPES pH 7.5, 200 mM NaCl; 3, 30, 300, 3000 s at room temperature; conditions: both partners purified

With `CNc1ccccc1C(=O)O[C@H]1C[C@H](n2cnc3c(=O)[nH]c(N)nc32)O[C@@H]1COP(=O)(O)OP(=O)(O)O` [Mant-GDP, 3-(N-methyl-anthraniloyl)-2-deoxy-GDP] the “Mant-GDP loading, then fluorescence release on GEF-driven exchange” value (shortened to “Mant-GDP loading … on GEF-driven exchange”) (Rab11A [1]) was “F36 and I44 residues, with mutation of these residues to Alanine”, the “Mant-GDP loading … on GEF-driven exchange” value (Rab11A [2]) was “GEF assays on Q70L Rab11A showed a slightly elevated GEF-mediated nucleotide exchange rate” and the “Mant-GDP loading, fluorescence release assay” value (Rab4B) was “panel of evolutionarily related Rab GTPases loaded with Mant-GDP”. For the same molecule, the “Mant-GDP loading … on GEF-driven exchange” value (Rab11A [3]) was “Rab11 isoforms Rab11A and Rab25 loaded with the fluorescent GDP analog”, the “Mant-GDP loading … on GEF-driven exchange” value (Rab11A [4]) was “with R82 only partially decreasing SH3BP5 GEF activity” and the “Mant-GDP loading, fluorescence release assay” value (Rab14) was “panel of evolutionarily related Rab GTPases loaded with Mant-GDP”. The “Mant-GDP loading … on GEF-driven exchange” value (Rab11A [5]) was “F36 and I44 residues, with mutation of these residues to Alanine”, the “Mant-GDP loading … on GEF-driven exchange” value (Rab11A [6]) was “Rab2A (L38P), Rab8 (S40F), and Rab14 (K41P) were also found to decrease GEF activity” and the “Mant-GDP loading … on GEF-driven exchange” value (Rab11A [7]) was “Rab2A (L38P), Rab8 (S40F), and Rab14 (K41P) were also found to decrease GEF activity”. The “Mant-GDP loading … on GEF-driven exchange” value (Rab11A [8]) was “this mutant had rapid nucleotide exchange even in the absence of SH3BP5”, the “Mant-GDP loading, fluorescence release assay” value (Rab8) was “panel of evolutionarily related Rab GTPases loaded with Mant-GDP” and the “Mant-GDP loading … on GEF-driven exchange” value (Rab25) was “Rab11 isoforms Rab11A and Rab25 loaded with the fluorescent GDP analog”. The “Mant-GDP loading, fluorescence release assay” value (Rab2A) was “panel of evolutionarily related Rab GTPases loaded with Mant-GDP”, the “Mant-GDP loading … on GEF-driven exchange” value (Rab11A [9]) was “Rab11A (S25N) caused rapid release of Mant-GDP even in the absence of SH3BP5” and the “Mant-GDP loading, fluorescence release assay” value (Rab12) was “panel of evolutionarily related Rab GTPases loaded with Mant-GDP”.

B1: Rab11A Q70L (1–213) (natural protein, human, UniProt P62491 1-213, looked up)
chain: MGTRDDEYDYLFKVVLIGDSGVGKSNLLSRFTRNEFNLESKSTIGVEFATRSIQVDGKTIKAQIWDTAGLERYRAITSAYYRGAVGALLVYDIAKHLTYENVERWLKELRDHADSNIVIMLVGNKSDLRHLRAVPTDEARAFAEKNGLSFIETSALDSTNVEAAFQTILTEIYRIVSQKQMSDRRENDMSPSNNVVPIHVPPTTENKPKVQCC
notes: called full-length in the results; dominant active switch II mutant Q70L; Nucleotide removed with EDTA before complex formation; The limits 1-213 are printed for the crystal only; A SeMet form was used for phasing; also called Rab11(Q70L); full-length Q70L Rab11A; source: E. coli BL21 C41, purified (GSTrap, TEV cleavage, HiTrap Q, SEC); not shown: GST, N-terminal, cleaved
B1: binds [10]; binds [11].

B2: WT Rab11A (1–211, C-term his) (natural protein, human, UniProt P62491 1-211, looked up)
chain: MGTRDDEYDYLFKVVLIGDSGVGKSNLLSRFTRNEFNLESKSTIGVEFATRSIQVDGKTIKAQIWDTAGQERYRAITSAYYRGAVGALLVYDIAKHLTYENVERWLKELRDHADSNIVIMLVGNKSDLRHLRAVPTDEARAFAEKNGLSFIETSALDSTNVEAAFQTILTEIYRIVSQKQMSDRRENDMSPSNNVVPIHVPPTTENKPKVQ
notes: Rab11A, residues 1-211, wild type; The limits 1-211 are printed for the HDX-MS experiment; In GEF assays it was loaded with Mant-GDP; also called Rab11A-His6; Rab11a-His6; source: E. coli BL21 C41, purified (GSTrap, TEV cleavage, HiTrap Q, SEC); not shown: GST, N-terminal, cleaved; His6, C-terminal, kept
B2: binds [12].
